Results on one compound are retold here after ChEMBL document CHEMBL1122618, “Total chemical synthesis and antitumor evaluation of 4-demethoxy-10,10-dimethyldaunomycin” (1984).

This experiment relates to Mus musculus. As to the kind of experiment: The compound was tested intraperitoneally against P388 acute lymphocytic leukemia in mice (dose 10 mg/kg). The following applies: route intraperitoneal. It is filed as functional.

`CC(=O)[C@@]1(O)C[C@H](OC2CC(N)C(O)C(C)O2)c2c(O)c3c(c(O)c2C1(C)C)C(=O)c1ccccc1C3=O` (stereo partly specified) gave a T/C of more than 316.
